Laboratory results reported in ChEMBL document CHEMBL1201862, “PubChem BioAssay data set” (2004).
Each block holds one molecule with its values, some of them ahead of it. Activity calls are given as the source filed them.

What was measured:
[1] = mouse embryonic fibroblast toxicity – cell-based, plate reader, dry powder, set 2, cytotoxicity control, dose response (AID 652280); format: functional; settings: NIH3T3
[2] = Late-stage results from the probe development effort to identify antagonists of arginine vasopressin receptor 1a (AVPR1a): fluorescence-based cell-based dose response AVPR1a inhibition assay.; format: functional
[3] = target: Vasopressin V2 receptor (Homo sapiens, UniProt P30518); assay: Late-stage results from the probe development effort to identify antagonists of arginine vasopressin receptor 1a (AVPR1a): fluorescence-based cell-based dose response AVPR2 inhibition counterscreen assay.; format: functional
[4] = target: Vasopressin V1b receptor (Homo sapiens, UniProt P47901); assay: Late-stage results from the probe development effort to identify antagonists of arginine vasopressin receptor 1a (AVPR1a): fluorescence-based cell-based dose response AVPR1b inhibition counterscreen assay.; format: functional
[5] = Late-stage results from the probe development effort to identify antagonists of arginine vasopressin receptor 1a (AVPR1a): fluorescence-based cell-based dose response OXTR inhibition counterscreen assay.; format: functional
[6] = Dd2 parasite growth inhibition in erythrocytes – SYBR Green, dry powder samples, set 9, dose response (AID 1159568); format: functional, cell-based
[7] = reduced cellular PGC1a acetyl-lysine signal – cell-based, cherry-picked samples, dose response (AID 720514); format: functional;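 note: potency may reflect raised or lowered acetylation signal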
[8] = viability loss in A549 lung cells – cell-based, 24 h, CellTiter-Glo luminescence, cherry-picks, cytotoxicity control, dose response (AID 1053115); format: functional; settings: A549, 24 h
[9] = target: T1, Oxysterols receptor LXR-beta (Homo sapiens, UniProt P55055); format: functional, cell-based;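 note: Cell-based luminescence dose-response assay of agonist activity at LXR, run as a confirmatory counterscreen to a daf-12 agonist screen; HEK293 cells with Gal4-LXR fusion and GAL4-driven luciferase reporter; agonist potency from rising luciferase signal of a Gal4-LXR reporter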
T1 sequence (P55055 whole entry): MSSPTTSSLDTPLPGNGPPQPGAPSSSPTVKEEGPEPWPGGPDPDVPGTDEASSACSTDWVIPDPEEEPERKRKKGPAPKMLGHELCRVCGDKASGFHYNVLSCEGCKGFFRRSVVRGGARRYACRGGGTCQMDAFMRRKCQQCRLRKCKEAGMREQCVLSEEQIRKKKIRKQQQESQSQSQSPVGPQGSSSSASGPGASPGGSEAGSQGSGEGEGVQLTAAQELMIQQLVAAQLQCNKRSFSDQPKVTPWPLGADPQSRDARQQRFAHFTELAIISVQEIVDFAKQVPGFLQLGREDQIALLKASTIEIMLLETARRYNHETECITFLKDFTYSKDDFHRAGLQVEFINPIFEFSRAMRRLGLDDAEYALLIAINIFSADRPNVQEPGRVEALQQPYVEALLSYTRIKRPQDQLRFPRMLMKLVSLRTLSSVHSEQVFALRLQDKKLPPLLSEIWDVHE

[10] = cells
[11] = toxicity to A549 lung cells – cell-based, plate reader, dry powder, set 6, cytotoxicity control, dose response (AID 743312); format: functional
[12] = toxicity to HepG2 liver cells – cell-based, plate reader, dry powder, set 6, cytotoxicity control, dose response (AID 743311); format: functional
[13] = target: T2, Low molecular weight phosphotyrosine protein phosphatase (Homo sapiens, UniProt P24666); assay: inhibition of human LMPTP enzyme activity – biochemical, absorbance, pNPP substrate, LMPTP-A isoform, set 2, orthogonal assay, dose response (AID 743308); format: functional
T2 sequence (P24666 whole entry): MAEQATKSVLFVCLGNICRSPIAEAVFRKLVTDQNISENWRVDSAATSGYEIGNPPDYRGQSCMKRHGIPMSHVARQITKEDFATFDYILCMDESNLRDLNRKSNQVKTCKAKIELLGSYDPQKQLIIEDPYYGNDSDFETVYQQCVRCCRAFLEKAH

[14] = target: T2, Low molecular weight phosphotyrosine protein phosphatase; assay: inhibition of LMPTP-A enzymatic activity – biochemical, OMFP substrate, fluorescence intensity, set 2, dose response (AID 743307); format: functional
[15] = growth inhibition of PfATP4-mutant resistant parasites – NITD609-resistant line, SYBR Green, dry powder, dose response (AID 1159571); format: functional, cell-based;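 note: parasites synchronized at ring stage by sorbitol before testing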
[16] = growth inhibition of yeast DHODH-expressing 3D7 parasites – SYBR Green, dry powder samples, dose response (AID 1159570); format: functional, cell-based;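 note: parasite growth measured after 72 hours of compound exposure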
[17] = P. falciparum Dd2 growth inhibitors, dose response, SYBR Green, cherry-picked samples (AID 1159567); format: functional, cell-based
[18] = Dd2 malaria parasite growth inhibition potency – SYBR Green, dry powder samples, dose response (AID 1159566); format: functional, cell-based;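 note: potency for growth inhibition with lower SYBR green DNA signal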
[19] = antifungal activity, alamar blue, dry powder, counter-screen for C. neoformans cell wall antifungals, dose response (AID 743128); format: functional, organism-based
[20] = target: Phospholipase D2 (Homo sapiens, UniProt O14939); assay: PLD2 Cellular Concentration Response Study.; format: functional
[21] = target: Phospholipase D1 (Homo sapiens, UniProt Q13393); assay: PLD1 Cellular Concentration Response Study.; format: functional
[22] = Potency on glucagon-like peptide 1 release, dose-response in NCI-H716 cell line, half maximal inhibitory concentration (AID 1117344); format: functional, cell-based
[23] = glucagon-like peptide-1 release potency in STC-1, concentration-response, half-maximal inhibitory concentration in the STC-1 line (AID 1117345); format: functional, cell-based
[24] = rise of 2N DNA cells, HeLa – IC50, dose response (AID 1117349); format: functional, cell-based
[25] = IC50 of insulin release inhibition, rat insulinoma INS-1E line, 5 mM glucose, cell-based (AID 1117331); format: functional
[26] = rise of 4N DNA cells, HeLa – IC50, dose response (AID 1117351); format: functional, cell-based

Phospholipase D2, sequence (O14939 whole entry): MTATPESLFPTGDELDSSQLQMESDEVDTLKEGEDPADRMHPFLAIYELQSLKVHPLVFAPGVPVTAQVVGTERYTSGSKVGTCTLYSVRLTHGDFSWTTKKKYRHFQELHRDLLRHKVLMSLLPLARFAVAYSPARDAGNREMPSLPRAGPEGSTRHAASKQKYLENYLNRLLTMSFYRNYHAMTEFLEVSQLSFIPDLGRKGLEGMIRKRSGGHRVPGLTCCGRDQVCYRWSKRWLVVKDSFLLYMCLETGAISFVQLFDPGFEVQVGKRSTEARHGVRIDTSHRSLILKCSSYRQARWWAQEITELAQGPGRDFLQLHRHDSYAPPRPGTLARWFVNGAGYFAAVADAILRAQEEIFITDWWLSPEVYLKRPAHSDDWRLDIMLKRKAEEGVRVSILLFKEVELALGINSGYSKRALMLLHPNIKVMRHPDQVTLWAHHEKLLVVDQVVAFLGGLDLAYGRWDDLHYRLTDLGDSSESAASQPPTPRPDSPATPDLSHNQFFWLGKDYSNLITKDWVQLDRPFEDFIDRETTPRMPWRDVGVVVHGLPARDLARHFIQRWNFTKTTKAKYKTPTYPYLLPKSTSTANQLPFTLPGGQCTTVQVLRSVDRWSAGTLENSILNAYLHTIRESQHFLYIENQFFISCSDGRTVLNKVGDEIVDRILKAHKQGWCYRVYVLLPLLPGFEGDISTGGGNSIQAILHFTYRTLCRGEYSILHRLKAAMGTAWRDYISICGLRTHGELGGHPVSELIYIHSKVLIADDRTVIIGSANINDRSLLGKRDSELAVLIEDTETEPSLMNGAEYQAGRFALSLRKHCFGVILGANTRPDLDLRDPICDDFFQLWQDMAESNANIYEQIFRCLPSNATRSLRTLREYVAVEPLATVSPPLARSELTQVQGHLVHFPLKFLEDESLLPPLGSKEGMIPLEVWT
Phospholipase D1, sequence (Q13393 whole entry): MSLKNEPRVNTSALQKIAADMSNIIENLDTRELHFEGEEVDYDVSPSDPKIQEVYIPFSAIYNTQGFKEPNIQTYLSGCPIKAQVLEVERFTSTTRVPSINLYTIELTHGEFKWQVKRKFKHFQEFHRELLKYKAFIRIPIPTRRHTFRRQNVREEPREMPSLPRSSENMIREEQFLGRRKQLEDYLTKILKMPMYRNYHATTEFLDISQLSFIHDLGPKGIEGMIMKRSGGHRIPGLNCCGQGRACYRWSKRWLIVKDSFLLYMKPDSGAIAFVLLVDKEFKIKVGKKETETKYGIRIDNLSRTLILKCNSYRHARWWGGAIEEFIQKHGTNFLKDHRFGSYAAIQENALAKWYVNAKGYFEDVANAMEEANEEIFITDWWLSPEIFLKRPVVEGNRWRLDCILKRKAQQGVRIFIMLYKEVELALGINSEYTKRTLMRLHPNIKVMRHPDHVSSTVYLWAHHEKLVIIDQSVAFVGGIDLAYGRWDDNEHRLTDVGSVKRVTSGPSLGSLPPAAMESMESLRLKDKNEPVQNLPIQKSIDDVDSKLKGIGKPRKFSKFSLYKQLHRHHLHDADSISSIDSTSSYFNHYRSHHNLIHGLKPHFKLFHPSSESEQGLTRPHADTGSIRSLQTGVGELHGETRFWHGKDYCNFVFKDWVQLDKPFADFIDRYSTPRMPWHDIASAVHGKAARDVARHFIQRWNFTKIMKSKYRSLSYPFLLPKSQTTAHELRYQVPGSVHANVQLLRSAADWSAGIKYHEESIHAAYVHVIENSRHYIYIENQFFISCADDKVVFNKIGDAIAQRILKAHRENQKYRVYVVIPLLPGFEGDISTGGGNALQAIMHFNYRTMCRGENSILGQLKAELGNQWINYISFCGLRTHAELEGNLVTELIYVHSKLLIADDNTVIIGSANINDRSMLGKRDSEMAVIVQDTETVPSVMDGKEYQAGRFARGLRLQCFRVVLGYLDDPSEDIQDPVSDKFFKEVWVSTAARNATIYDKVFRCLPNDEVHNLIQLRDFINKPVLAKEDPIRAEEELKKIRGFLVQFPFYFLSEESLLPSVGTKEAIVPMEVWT
Vasopressin V2 receptor, sequence (P30518 whole entry): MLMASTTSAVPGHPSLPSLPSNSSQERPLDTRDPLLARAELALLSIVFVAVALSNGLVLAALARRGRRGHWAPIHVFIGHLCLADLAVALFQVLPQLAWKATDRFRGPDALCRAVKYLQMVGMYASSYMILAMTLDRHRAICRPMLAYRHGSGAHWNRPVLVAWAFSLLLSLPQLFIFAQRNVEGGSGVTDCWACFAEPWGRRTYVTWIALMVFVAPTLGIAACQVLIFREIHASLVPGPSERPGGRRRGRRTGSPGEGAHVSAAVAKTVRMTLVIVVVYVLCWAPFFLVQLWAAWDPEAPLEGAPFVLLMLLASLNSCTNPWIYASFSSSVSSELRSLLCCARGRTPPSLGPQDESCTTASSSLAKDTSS
Vasopressin V1b receptor, sequence (P47901 whole entry): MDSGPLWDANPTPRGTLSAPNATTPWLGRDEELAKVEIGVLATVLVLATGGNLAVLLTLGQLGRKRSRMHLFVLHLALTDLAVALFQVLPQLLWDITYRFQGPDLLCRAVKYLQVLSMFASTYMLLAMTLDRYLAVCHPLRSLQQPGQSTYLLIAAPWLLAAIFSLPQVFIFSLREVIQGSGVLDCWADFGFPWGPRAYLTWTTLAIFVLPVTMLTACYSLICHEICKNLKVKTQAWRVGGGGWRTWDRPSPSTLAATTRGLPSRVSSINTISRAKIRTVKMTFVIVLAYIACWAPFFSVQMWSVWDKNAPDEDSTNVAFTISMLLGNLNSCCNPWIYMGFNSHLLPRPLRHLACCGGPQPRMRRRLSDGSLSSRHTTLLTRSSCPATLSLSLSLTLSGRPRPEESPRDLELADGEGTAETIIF

SMILES: CN(C)CC#Cc1cccc(-c2nc(C(=O)Nc3ccc(-c4ccccc4)cc3)cc3c2[C@H](CCO)N([S+]([O-])C(C)(C)C)C3)c1 (stereo partly specified)
- AC50 [1]: 9.5 µM (active)

SMILES: O=C(C1CCN(c2cc(C(F)(F)F)ccn2)CC1)N(CC1CC1)c1ccc(Cl)cc1
- IC50 [2]: 0.0367 µM (active)
- IC50 [3]: > 50 µM (inactive)
- IC50 [4]: > 50 µM (inactive)
- IC50 [5]: > 50 µM (inactive)

SMILES: Fc1cccc(CN2C[C@@H]3N[C@H](C2)[C@@H]3c2ccc(/C=C/c3ccccc3)cc2)c1
- AC50 [6]: 4.6 µM (active)
- AC50 [7]: 13.4 µM (active)

SMILES: CN1c2ccc(-c3ccc(C#N)cc3)cc2[C@@H]2[C@@H](CCN2C(=O)C2CCCCC2)[C@H]1CO
- AC50 [8]: 47.5 µM (active)

SMILES: Cc1csc(N/N=C/c2ccccc2F)n1
- EC50 [9]: > 67.6 µM (inactive)
- EC50 [10]: > 67.6 µM (inactive)

SMILES: Sc1nc2cccc(Cl)c2n1CCOc1ccccc1
- AC50 [11]: 20.9 µM (active)
- AC50 [12]: > 52 µM (inactive)

- IC50 [13]: > 80 µM (inactive)
- IC50 [14]: 58.1 µM (inactive)
SMILES: CN(C)CCNc1nc(-c2ccccc2)nc2ccccc12

SMILES: Cc1ccc(-c2ccccc2[C@H]2[C@@H](C#N)N(C(=O)c3cccc(F)c3)[C@H]2CO)cc1
- AC50 [15]: 6.78 µM (active)
- AC50 [16]: 1.49 µM (active)
- AC50 [17]: 2.52 µM (active)
- AC50 [18]: 1.26 µM (active)

SMILES: CCOC(=O)c1c(-c2ccc(F)cc2)csc1NC(=O)CN1CCN(CC)CC1
- AC50 [19]: 42.5 µM (active)

SMILES: COc1cccc(C(=O)N2CNC(=O)C23CCN(CCNC(=O)c2ccc4ccccc4c2)CC3)c1
- IC50 [20]: 2.05 µM (active)
- IC50 [21]: 19 µM (active)

SMILES: CCCCCCCCCCCCCCCCCCNC(=O)OC1CCN(C(=O)OC[C@H](COC(=O)N(Cc2cccc[n+]2CC)C(=O)c2ccccc2OC)OC)CC1 [MINOPAFANT]
- IC50 [22]: 9.52 µM (inactive)
- IC50 [23]: 13.8 µM (inactive)
- IC50 [24]: > 10 µM (inactive)
- IC50 [25]: 21.7 µM (inactive)
- IC50 [26]: > 10 µM (inactive)
